# What was measured:
# [1] = target: PIK3Cδ (Homo sapiens (Human), UniProt O00329); assay: PI3K biochemical potency assay (PI3Kδ)
# Experimental: (§1) PI3Kα (p110α/p85a), PIK3C δ, PIK3Cβ (p110β), PIK3Cγ (pp110γ) kinase reaction solutions of PI3Kα (Invitrogen, Cat. No. PV4788), PIK3Cδ (Invitrogen, Cat. No. PV6452), PIK3Cβ (Millipore, Cat. No. 14-603-K), PIK3Cγ (Invitrogen, Cat. No. PR8641C) enzymes were prepared in 1× kinase buffer at 4-fold of the final concentration (final concentration: PI3Kα 0.7 nM, PIK3Cδ 3 nM, PIK3Cβ 4.8 nM, PIK3Cγ 11 nM) of each reagent in the assay. 2.5 μl of kinase solution was added to each well of the 384-well assay plate, which contains 2.5 μl of compounds with serially diluted concentration. 2× substrate solution was prepared with PIP2 substrate and ATP in 1× kinase reaction buffer at 2-fold of the final concentration of each reagent in the assay. 5 μl of substrate solution was added to each well of the assay plate to start reaction. The assay plate was incubated at room temperature for 1 hour. 5 μl reaction mix was transferred to a new 384 well plate. 5 μl of ADP-Glo reagent (Promega, Cat. No. v9102/3, Lot. No. 0000176563) was added to each well of the new assay plate to stop the reaction. The plate was shaken slowly and equilibrated for 40 minutes. 10 μl kinase detection reagents was added to each well, which was equilibrated for 60 minutes before read on a plate reader (Envision) for luminescence.
# [2] = target: ATM (Homo sapiens (Human), UniProt Q13315); assay: ATM biochemical potency assay
# ATM, sequence (Q13315 whole entry, looked up): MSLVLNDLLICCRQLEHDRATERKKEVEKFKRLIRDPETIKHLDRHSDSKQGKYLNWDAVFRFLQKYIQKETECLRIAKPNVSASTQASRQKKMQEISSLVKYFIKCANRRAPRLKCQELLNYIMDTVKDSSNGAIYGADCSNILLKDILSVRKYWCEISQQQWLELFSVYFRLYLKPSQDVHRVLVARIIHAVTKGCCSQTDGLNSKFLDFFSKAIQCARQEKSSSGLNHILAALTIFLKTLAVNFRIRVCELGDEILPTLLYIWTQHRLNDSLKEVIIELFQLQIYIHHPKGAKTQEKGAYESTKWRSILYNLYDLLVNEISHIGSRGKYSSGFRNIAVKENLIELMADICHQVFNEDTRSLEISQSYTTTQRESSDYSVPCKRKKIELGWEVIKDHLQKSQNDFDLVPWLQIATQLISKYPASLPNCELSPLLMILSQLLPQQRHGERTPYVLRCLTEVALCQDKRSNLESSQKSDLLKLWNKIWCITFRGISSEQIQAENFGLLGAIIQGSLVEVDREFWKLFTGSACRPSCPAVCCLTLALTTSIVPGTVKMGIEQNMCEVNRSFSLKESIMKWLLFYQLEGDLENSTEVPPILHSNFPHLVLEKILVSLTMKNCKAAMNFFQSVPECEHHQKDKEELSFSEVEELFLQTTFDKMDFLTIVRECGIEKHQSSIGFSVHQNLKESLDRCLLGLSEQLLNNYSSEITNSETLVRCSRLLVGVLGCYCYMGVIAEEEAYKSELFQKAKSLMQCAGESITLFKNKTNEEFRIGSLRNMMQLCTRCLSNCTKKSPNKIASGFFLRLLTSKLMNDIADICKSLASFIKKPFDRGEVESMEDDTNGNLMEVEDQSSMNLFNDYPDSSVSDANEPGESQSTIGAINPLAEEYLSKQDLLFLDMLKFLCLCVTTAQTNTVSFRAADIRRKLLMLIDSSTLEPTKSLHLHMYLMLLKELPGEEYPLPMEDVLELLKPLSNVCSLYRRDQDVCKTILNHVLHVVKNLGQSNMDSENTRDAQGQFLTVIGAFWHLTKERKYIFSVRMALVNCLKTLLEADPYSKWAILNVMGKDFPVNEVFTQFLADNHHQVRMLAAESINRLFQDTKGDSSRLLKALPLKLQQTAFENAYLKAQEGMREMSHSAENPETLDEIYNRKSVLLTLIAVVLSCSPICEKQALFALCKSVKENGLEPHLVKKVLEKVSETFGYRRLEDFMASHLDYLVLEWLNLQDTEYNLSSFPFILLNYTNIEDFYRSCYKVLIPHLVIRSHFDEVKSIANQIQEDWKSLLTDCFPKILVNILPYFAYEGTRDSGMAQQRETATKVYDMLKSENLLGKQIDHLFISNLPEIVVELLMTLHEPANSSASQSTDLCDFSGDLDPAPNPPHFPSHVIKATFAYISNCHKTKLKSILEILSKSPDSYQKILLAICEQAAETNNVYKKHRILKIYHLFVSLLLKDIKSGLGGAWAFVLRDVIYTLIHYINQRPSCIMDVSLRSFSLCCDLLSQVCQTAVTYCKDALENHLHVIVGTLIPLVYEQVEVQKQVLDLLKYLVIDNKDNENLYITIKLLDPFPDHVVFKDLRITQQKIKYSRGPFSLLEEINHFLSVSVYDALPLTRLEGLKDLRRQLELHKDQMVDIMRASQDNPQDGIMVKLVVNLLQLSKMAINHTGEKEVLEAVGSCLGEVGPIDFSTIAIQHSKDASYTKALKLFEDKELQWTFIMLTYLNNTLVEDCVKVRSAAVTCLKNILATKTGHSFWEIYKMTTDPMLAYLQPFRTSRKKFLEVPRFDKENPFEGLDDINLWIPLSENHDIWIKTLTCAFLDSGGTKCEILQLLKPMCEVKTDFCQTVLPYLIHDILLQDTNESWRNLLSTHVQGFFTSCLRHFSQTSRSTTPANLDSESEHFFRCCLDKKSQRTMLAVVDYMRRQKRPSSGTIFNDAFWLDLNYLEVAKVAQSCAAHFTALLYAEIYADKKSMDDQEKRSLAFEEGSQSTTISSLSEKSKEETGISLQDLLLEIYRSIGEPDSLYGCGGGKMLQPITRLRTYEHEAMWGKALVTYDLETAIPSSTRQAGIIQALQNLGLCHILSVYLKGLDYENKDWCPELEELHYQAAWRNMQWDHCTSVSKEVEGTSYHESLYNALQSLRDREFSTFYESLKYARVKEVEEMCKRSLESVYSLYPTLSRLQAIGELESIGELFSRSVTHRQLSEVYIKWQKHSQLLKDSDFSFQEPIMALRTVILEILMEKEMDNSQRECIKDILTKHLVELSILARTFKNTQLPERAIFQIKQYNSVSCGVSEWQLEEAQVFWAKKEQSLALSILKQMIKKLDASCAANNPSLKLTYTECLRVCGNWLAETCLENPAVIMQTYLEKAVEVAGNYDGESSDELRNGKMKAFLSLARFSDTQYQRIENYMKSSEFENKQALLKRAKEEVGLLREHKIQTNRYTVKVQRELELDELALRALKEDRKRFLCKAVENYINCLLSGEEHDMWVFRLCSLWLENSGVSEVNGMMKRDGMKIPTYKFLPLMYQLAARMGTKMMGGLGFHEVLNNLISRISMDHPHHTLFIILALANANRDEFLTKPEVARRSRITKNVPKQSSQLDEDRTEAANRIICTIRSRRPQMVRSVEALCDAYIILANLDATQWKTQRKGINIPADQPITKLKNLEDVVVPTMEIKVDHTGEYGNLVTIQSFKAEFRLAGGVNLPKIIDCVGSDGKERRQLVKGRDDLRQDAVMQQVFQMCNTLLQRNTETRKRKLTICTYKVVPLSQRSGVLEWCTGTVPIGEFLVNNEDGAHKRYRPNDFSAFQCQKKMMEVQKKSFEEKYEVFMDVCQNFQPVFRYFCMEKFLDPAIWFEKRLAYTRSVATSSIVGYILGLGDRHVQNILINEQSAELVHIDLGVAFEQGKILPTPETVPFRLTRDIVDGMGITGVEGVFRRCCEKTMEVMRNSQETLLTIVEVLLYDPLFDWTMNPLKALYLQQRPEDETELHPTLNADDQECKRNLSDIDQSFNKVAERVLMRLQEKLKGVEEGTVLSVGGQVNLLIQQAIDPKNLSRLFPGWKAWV
# Experimental: The plate was incubated at room temperature for 10 minutes. […] Data was collected by Caliper.
# [3] = target: PI3Kα (p110α/p85a) (Homo sapiens (Human), UniProt P42336); assay: PI3K biochemical potency assay (PI3Kα)
# Experimental: as §1
# [4] = target: mTOR (Homo sapiens (Human), UniProt P42345); assay: mTOR biochemical potency assay
# Experimental: Solution of mTOR enzymes (Millipore, Cat. No. 14-770, Lot. No. 2052551) was prepared in 1× kinase buffer at 4-fold of the final concentration (final concentration: 6 nM) in the assay. 2.5 μl of kinase solution was added to each well of the 384-well assay plate, which contains 2.5 μl of compounds with serially diluted concentration. 2× substrate solution was prepared with ULight-4E-BP1 (Thr37/46) Peptide (PE, Cat. No. TRF0128-M, Lot. No. 1695274) and ATP in 1× kinase reaction buffer at 2-fold of the final concentration of each reagent in the assay. 5 μl of substrate solution was added to each well of the assay plate to start reaction. The assay plate was incubated at room temperature for 30 minutes. Detection solution of kinase quench buffer (EDTA) and Eu-anti-phospho-4E-BP1 antibody (Thr37/46) (PE, Cat. No. TRF0216-M, Lot. No. 1571838) were prepared at 2-fold the desired final concentrations of each reagent in Lance detection buffer. 10 μl of detection solution buffer was added to each well of the assay plate. The assay plate was equilibrated for 60 minutes at room temperature before read on a plate reader (Lance signal (665 nm) from Envision program).
# [5] = target: PIK3Cγ (pp110γ) (Homo sapiens (Human), UniProt P48736); assay: PI3K biochemical potency assay (PI3Kγ)
# PIK3Cγ (pp110γ), sequence (P48736 whole entry): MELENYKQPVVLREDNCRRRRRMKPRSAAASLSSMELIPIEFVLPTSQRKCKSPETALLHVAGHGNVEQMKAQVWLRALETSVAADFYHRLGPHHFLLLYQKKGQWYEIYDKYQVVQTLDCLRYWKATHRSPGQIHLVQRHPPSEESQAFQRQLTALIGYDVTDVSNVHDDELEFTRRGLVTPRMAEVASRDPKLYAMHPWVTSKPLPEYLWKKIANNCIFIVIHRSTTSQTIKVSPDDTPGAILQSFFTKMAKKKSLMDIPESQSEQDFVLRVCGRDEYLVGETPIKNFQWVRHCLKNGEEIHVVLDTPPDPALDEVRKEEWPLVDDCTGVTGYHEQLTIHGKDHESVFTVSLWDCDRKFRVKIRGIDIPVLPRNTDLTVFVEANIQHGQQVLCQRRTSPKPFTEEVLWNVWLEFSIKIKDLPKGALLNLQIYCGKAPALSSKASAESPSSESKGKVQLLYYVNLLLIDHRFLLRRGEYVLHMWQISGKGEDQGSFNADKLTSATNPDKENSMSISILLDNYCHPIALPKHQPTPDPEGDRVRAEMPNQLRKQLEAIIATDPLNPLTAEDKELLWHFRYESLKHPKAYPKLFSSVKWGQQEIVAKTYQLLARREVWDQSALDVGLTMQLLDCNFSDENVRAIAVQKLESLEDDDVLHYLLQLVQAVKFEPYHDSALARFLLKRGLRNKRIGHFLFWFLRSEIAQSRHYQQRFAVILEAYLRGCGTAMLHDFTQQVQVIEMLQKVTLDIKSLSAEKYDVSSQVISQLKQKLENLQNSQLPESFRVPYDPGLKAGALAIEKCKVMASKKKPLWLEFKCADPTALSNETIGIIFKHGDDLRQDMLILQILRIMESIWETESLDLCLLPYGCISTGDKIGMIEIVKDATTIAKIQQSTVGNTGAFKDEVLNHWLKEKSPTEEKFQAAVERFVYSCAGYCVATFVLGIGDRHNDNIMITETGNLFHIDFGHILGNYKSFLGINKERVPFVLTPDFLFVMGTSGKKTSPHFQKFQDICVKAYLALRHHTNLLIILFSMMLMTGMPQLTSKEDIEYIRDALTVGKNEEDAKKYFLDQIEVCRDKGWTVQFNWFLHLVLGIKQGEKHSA
# Experimental: as §1
# [6] = target: ATM in SN38 treated HT-29 cells (Homo sapiens (Human), UniProt Q13315); assay: ATM SN-38 HT-29 cellular potency assay
# ATM in SN38 treated HT-29 cells, sequence (Q13315 whole entry, looked up): as the sequence (Q13315 whole entry, looked up) above
# Experimental: Inhibition of ATM was evaluated in SN38 treated HT-29 cells (ATCC, Cat #HTB-38) by high-Content Imaging System
# HT-29 cells were trypsinized and approximately 10,000 cells were seeded per well to 96-well microplates which were incubated overnight at 37° C. and 5% CO2. Test compounds were added to the 96-well plates which were incubated at 37° C. and 5% CO2 for 1 hour. […] After the plates were rinsed 3 times with PBSA, 50 μl permeabilization buffer (0.1% Triton-X 100 in PBSA) was added and the plates were incubated for 20 minutes at room temperature. After the plates were rinsed once with PBSA, 50 μl primary antibody solution was added and the plates were incubated in at 4° C. overnight. […] The plates were rinsed with PBST 3 times and then 100 μl PBSA were added per well. The plates were sealed with black plate seals.
# [7] = target: PIK3Cβ (p110β) (Homo sapiens (Human), UniProt P42338); assay: PI3K biochemical potency assay (PI3Kβ)
# Experimental: as §1
# [8] = target: ATR (Homo sapiens (Human), UniProt Q13535); assay: ATR biochemical potency assay
# Experimental: ATR enzyme was made by ChemPartner (batch: CP-ATR-20161102-M2). 2× enzyme solutions were prepared in 1× kinase base buffer. 10 μl of 2× enzyme solution (final concentration: 2.5 nM) was added to each well of the 384-well assay plate containing 60 nl compound in each well. The plate was incubated at room temperature for 10 minutes. 2× peptide solutions were prepared with FAM-labeled peptide and ATP in the 1× kinase base buffer. 10 μl of 2× peptide solution was added to each well of the 384-well assay plate, which was incubated at 28° C. for 240 min. 40 μl of stop buffer was added to stop reaction. Data were collected by Caliper.
# [9] = target: hERG channel (Homo sapiens (Human), UniProt Q12809); assay: hERG safety assessment, manual patch clamp; details: for hERG inhibition @10 μM: HEK 293 cells stably expressing hERG
# Experimental: Inhibition of hERG channel was conducted in HEK 293 cell line stably expressing hERG channel by manual patch clamp.
# [10] = target: P-glycoprotein (Pgp) (Homo sapiens (Human), UniProt P08183); assay: MDCK-MDR1 Pgp assessment
# Experimental: Efflux transport mediated by P-glycoprotein (Pgp) was assessed by MDCK-MDR1 cells. The final concentrations of test compounds and control compound were at 1 μM. The multiwell insert plate was incubated at 37° C. for 2 hours.
# [11] = cited from earlier work; for clearance as % liver blood flow: humans
# [12] = target: T1, aldehyde oxidase (AO) (Homo sapiens (Human), UniProt Q06278); assay: in vitro; details: human liver cytosol
# [13] = target: T1, aldehyde oxidase (AO); assay: Aldehyde oxidase assay in human liver cytosol; details: human liver cytosol 1 mg/mL, 0.5 μM compound
# [14] = target: BCRP (Homo sapiens (Human), UniProt Q9UNQ0); assay: Caco-2 BCRP assessment; format: in vitro ADME; details: −inhibitor/+inhibitor (novobiocin 30 μM)
# BCRP, sequence (Q9UNQ0 whole entry): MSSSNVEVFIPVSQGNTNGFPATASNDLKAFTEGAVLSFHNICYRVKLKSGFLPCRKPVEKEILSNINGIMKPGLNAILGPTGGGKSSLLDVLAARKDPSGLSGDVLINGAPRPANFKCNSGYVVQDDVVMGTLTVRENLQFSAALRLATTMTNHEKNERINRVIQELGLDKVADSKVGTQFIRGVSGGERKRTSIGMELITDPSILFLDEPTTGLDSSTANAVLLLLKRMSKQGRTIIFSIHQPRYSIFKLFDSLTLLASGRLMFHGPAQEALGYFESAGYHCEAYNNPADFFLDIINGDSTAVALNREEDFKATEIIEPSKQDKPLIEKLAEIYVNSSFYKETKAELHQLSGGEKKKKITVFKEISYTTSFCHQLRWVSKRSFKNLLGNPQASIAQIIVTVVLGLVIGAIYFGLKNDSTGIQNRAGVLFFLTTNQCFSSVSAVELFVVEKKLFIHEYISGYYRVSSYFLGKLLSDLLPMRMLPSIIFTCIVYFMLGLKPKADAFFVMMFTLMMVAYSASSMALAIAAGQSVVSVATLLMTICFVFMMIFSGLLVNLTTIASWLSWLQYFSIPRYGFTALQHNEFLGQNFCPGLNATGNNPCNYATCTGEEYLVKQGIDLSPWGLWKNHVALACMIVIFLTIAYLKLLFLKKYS
# Description: Caco-2 cells was used to study efflux transport mediated by BCRP.
Compound,IC50 [1],IC50 [2],IC50 [3],IC50 [4],IC50 [5],IC50 [6],IC50 [7],IC50 [8],also measured
"CC(C)n1c(=O)n(C)c2nnc3cc(F)c(-c4ccc(COCCN5CCCCC5)nc4)cc3c21 [Example 7, 7-fluoro-1-isopropyl-3-methyl-8-(6-((2-(piperidin-1-yl)ethoxy)methyl)pyridin-3-yl)-1H-imidazo[4,5-c]cinnolin-2(3H)-one]",> 10 µM,0.026 µM,> 10 µM,> 10 µM,> 10 µM,0.274 µM,> 10 µM,> 10 µM,–
"CC(C)n1c(=O)n(C)c2nnc3cc(F)c(-c4ccc(COCCN5CC6CC6C5)nc4)cc3c21 (stereo not drawn) [Example 11, 8-(6-((2-(3-azabicyclo[3.1.0]hexan-3-yl)ethoxy)methyl)pyridin-3-yl)-7-fluoro-1-isopropyl-3-methyl-1H-imidazo[4,5-c]cinnolin-2(3H)-one]",> 10 µM,0.037 µM,> 10 µM,> 10 µM,> 10 µM,0.018 µM,> 10 µM,> 10 µM,–
"CC(C)n1c(=O)n(C)c2nnc3cc(F)c(-c4ccc(OCCCN5CCC(F)CC5)nc4)cc3c21 [Example 13, 7-fluoro-8-(6-(3-(4-fluoropiperidin-1-yl)propoxy)pyridin-3-yl)-1-isopropyl-3-methyl-1H-imidazo[4,5-c]cinnolin-2(3H)-one]",> 10 µM,> 1 µM,> 10 µM,> 10 µM,> 10 µM,0.027 µM,> 10 µM,> 10 µM,–
"CC(C)n1c(=O)n(C)c2nnc3cc(F)c(-c4ccc(OCCCN5CC6CC6C5)nc4)cc3c21 (stereo not drawn) [Example 16, 8-(6-(3-(3-azabicyclo[3.1.0]hexan-3-yl)propoxy)pyridin-3-yl)-7-fluoro-1-isopropyl-3-methyl-1H-imidazo[4,5-c]cinnolin-2(3H)-one]",> 10 µM,> 1 µM,> 10 µM,> 10 µM,> 10 µM,0.0185 µM,> 10 µM,> 10 µM,–
"CC(C)n1c(=O)n(C)c2cnc3cc(F)c(-c4ccc(OCCCN5CCCCC5)nc4)cc3c21 [Ref. Comp. 3, AZD1390]",–,–,–,–,–,–,–,–,hERG liability (in words) [9]: significant hERG inhibition; hERG inhibition @10 μM [9]: 79%; Pgp substrate (in words) [10]: not a Pgp substrate
"CCN(C(C)=O)c1cccc(-c2ccnc3c(C#N)cnn23)c1 [Ref. Comp. 4, N-[3-(3-cyanopyrazolo[1,5-a]pyrimidin-7-yl)phenyl]-N-ethylacetamide]",–,–,–,–,–,–,–,–,clearance as % liver blood flow [11]: ~80 % liver blood flow; microsomal CLint at 0.5 μM [12]: 3.1 µL/min/mg; AO intrinsic clearance [13]: 3.1 μL/min/mg protein
"OCCn1cc(-c2cnc3nnn(Cc4ccc5ncccc5c4)c3n2)cn1 [Ref. Comp. 5, 2-[4-[3-(quinolin-6-ylmethyl)triazolo[4,5-b]pyrazin-5-yl]pyrazol-1-yl]ethanol]",–,–,–,–,–,–,–,–,clearance in humans [11]: 6 mL/min/kg; clearance as % liver blood flow [11]: ~30 % liver blood flow
"CN(C)CCCOc1ccc(-c2ccc3nnc4c(c3c2)n(C2CCOCC2)c(=O)n4C)cn1 [compound 1, 8-[6-(3-dimethylamino-propoxy)-pyridin-3-yl]-3-methyl-1-(tetrahydro-2H-pyran-4-yl)-1H-imidazo[4,5-c]cinnolin-2(3H)-one]",–,0.0029 µM,–,–,–,0.112 µM,–,–,"hERG inhibition @10 μM [9]: 58%; efflux ratio at 2 h, 1 μM ([10]; human): 5.6; efflux ratio at 2 h, 1 μM [14]: 0.62"

# Source: US12226414B2, “1-isopropyl-3-methyl-8-(pyridin-3-yl)-1,3-dihydro-2H-imidazo[4,5-c] cinnolin-2-one as selective modulators of ataxia telangiectasia mutated (ATM) kinase and uses thereof” (SUZHOU ZANRONG PHARMA LIMITED, priority 2018, dated 2025)
